We go through one molecule from PubChem BioAssay (NCI).

Some test systems named below: HL-60(TB) leukemia; MDA-MB-435; K-562 leukemia; HT29 colon; SN12C renal; IGROV1 ovarian; TK-10 renal; U251 CNS; CCRF-CEM leukemia; OVCAR-8 ovarian; COLO 205 colon; MALME-3M melanoma; OVCAR-4 ovarian; SNB-19 CNS; UO-31 renal; MDA-MB-231 breast; NCI-H522 lung; MOLT-4 leukemia.
Holding throughout (experiment): growth of human tumour cells (NCI), 48 h

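These data come from cells grown in 96-well plates and exposed to compound for 48 hours at five concentrations. TGI is the concentration that stops growth completely.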

With `C=CCNC1=C2C[C@@H](C)C[C@@H](OC)[C@@H](OC(=O)CCCN)[C@H](C)/C=C(\C)[C@@H](OC(N)=O)[C@H](OC)/C=C\C=C(/C)C(=O)NC(=CC1=O)C2=O`, the TGI is 19.7 µM in the assay with HL-60(TB) leukemia; 45.2 µM in the assay with MDA-MB-435; over 100 µM in the assay with K-562 leukemia; 21.4 µM in the assay on HT29 colon; 44.2 µM in the assay on SN12C renal; 30.1 µM in the assay on IGROV1 ovarian. Besides, the TGI with TK-10 renal was 33.4 µM; in the assay on U251 CNS, over 50.4 µM; in the assay with CCRF-CEM leukemia, 28.9 µM; in the assay on OVCAR-8 ovarian it was 42.5 µM; with COLO 205 colon, 13.6 µM; in the assay on MALME-3M melanoma, 27.8 µM. In addition, the TGI in the assay on OVCAR-4 ovarian was determined as 48.4 µM; in the assay on SNB-19 CNS, 32.2 µM; in the assay with UO-31 renal, 34.2 µM; with MDA-MB-231 breast it was 33.5 µM; in the assay with NCI-H522 lung it was 26.4 µM; with MOLT-4 leukemia it was 40.2 µM.
